pEC50, pIC50: −log10 of the molar value. “And” between values parts separate entries of the source, which are not always exact repeats. Equal values may be shown once. Read-outs that look alike come from different tables or passages of the source.
Tests used:
[1] = test system: uterine horns from wild-type (WT) C57BL/6J female mice; assay: Spontaneous uterine contractility, isolated uterine horns in tissue organ bath; details: for Spontaneous contractile force compared with the vehicle control (in words) / Spontaneous uterine contraction frequency compared to vehicle control (in words) / Contractile Frequency/10 min (% of baseline), Drug / Contractile Force (% of baseline), Drug: maximal treatment dose; for Contractile Frequency/10 min (% of baseline), Drug / Contractile Force (% of baseline), Drug: spontaneous contractility; for Contractile Force (% of baseline), Drug: AUC as % of baseline AUC; for pIC50: spontaneous, dose-response 10^-9 to 10^-6 mol/L
Description: (§1) FIGS. 2A & 2B are representative contraction tracings of uterine horns from wild-type (WT) C57BL/6J female mice. FIG. 2A: Uterine horns were isolated and suspended in a tissue organ bath at 0.5 g of tension. Once equilibrated, selected progestin treatments were added in successively increasing concentrations from 10^−9 to 10^−6 mol/L in 20-minute intervals to assess effect on spontaneous contractile activity (progesterone treatment, bottom panel). The contralateral horn from each mouse was treated with a matching ethanol vehicle (top panel). All contraction responses were measured and reported as the area under the contraction curve (AUC), normalized to the AUC of the spontaneous contraction pattern that preceded treatment. FIG. 2B: Treatment effect on oxytocin-induced contractility was assessed by exposing horns to selected progestin treatments (10^−6 mol/L), followed by increasing doses of oxytocin (Oxt) (1, 10, 50, and 100 nmol/L) in 10-minute intervals (bottom panel). The contralateral horn from each mouse was treated with a matching ethanol vehicle (top panel). Contraction responses were measured and reported as described above.
(§2) All progestins were solubilized in ethanol and then diluted in phosphate-buffered saline to the desired molar concentration. […] The concentration of ethanol decreased parallel to the progestin dose in order to minimize the effect of the solvent on uterine contractility.
(§3) Virgin nonpregnant wild-type C57BL/6J female mice (Jackson Labs, Bar Harbor, Me.) were obtained at 10 to 12 weeks of age and fed a standard diet. Mice were euthanized by an IACUC-approved protocol, and each of the 2 uterine horns were removed. A 1 cm×0.5 cm segment of the uterine horn was suspended using 4-0 silk suture between a stainless steel wire hook connected to a Radnoti force displacement transducer (Radnoti LLC, Monrovia, Calif.) and a glass hook inside an organ bath that served as an anchor. The bath was filled with modified Krebs buffer (118 mmol/L NaCl, […], 1.2 mmol/L MgSO4, 1.2 mmol/L KH2PO4, 2.5 mmol/L CaCl2, 25 mmol/L NaHCO3, and 11 mmol/L glucose, pH 7.4), maintained at 37° C., and constantly bubbled with a premixed gas consisting of 20% O2, 5% CO2, and balance N2. Uterine horns were equilibrated at 0.5 g of tension for approximately 30 minutes until a spontaneous contraction pattern was established.
A total of 60 mice were utilized to assess the effect of the selected treatments on uterine contractility, 30 in the spontaneous contraction group and 30 in the oxytocin-induced group. Six mice were in each progestin treatment group during both spontaneous and oxytocin-induced contractility arms of the study. To determine the nongenomic (acute) effect of the progestin treatments on spontaneous uterine contractility, a segment of uterine horn from each mouse was exposed to a single progestin (progesterone, 17-OHPC, 2α-OHP, 6β-OHP, or 16αOHP), while a segment of the contralateral horn was exposed to a matching dose of ethanol vehicle. After a spontaneous contraction pattern was achieved, the progestin treatment was added to the tissue organ bath in successively increasing concentrations from 10^−9 to 10^−6 mol/L in 20-minute intervals. At the end of the treatments, the tissue was washed in modified Krebs buffer and then exposed to KCl (60 mmol/L) to elicit a tetanic response and confirm tissue viability.
Uterine contraction responses were recorded using LabChart Pro (ADInstruments, Colorado Springs, Colo.) software as the force generated with time (g×min). Baseline uterine contractility was calculated as the area under the curve (AUC) for a 10-minute period of spontaneous contractions. The AUC of the uterine contractile response to each treatment (progestin or oxytocin) was determined and expressed as a percentage of the baseline AUC observed during spontaneous contraction. […]

[2] = test system: uterine horns from wild-type (WT) C57BL/6J female mice; assay: Oxytocin-induced uterine contractility after progestin pretreatment, isolated uterine horns in tissue organ bath; details: for Oxytocin-induced contractile force compared to vehicle control (in words) / Oxytocin-induced contraction frequency compared to control (in words) / Contractile Force (% of baseline), Drug / Contractile Frequency/10 min (% of baseline), Drug: maximal oxytocin dose (100 nmol/L); for pEC50: oxytocin-induced dose-response (1-100 nmol/L oxytocin) after progestin pretreatment 10^-6 mol/L; for Contractile Force (% of baseline), Drug / Contractile Frequency/10 min (% of baseline), Drug: oxytocin-induced, progestin pretreatment 10^-6 mol/L
Description: as §1, §2, §3
To determine the nongenomic effect of progestin treatments on oxytocin-induced uterine contractility, the uterine horns were pretreated with a single progestin at 10^−6 mol/L for 10 minutes after a spontaneous contractile pattern was established. The contralateral horn from the same mouse was treated with ethanol vehicle at a matching concentration. The uterine horns were subsequently exposed to increasing concentrations of oxytocin (1, 10, 50, and 100 nmol/L) in 10-minute intervals. At the end of the oxytocin treatments, the tissue was washed and then exposed to KCl (60 mmol/L) to elicit a tetanic response and confirm tissue viability.
Uterine contraction responses were recorded using LabChart Pro (ADInstruments, Colorado Springs, Colo.) software as the force generated with time (g×min). Baseline uterine contractility was calculated as the area under the curve (AUC) for a 10-minute period of spontaneous contractions. The AUC of the uterine contractile response to each treatment (progestin or oxytocin) was determined and expressed as a percentage of the baseline AUC observed during spontaneous contraction. […] To account for repeated measurements for individual muscle strips at increasing treatment doses, a repeated measures 2-way analysis of variance model was used to compare the dose-response curves. Each dose-response curve was fit by nonlinear regression and compared using an extra sum of squares F test. The mean max-fit response was compared between each progestin and vehicle control to determine maximum treatment efficacy. […]

[3] = test system: primary uterine smooth muscle cells (UtSMC); assay: IL-6 production in UtSMC stimulated with LPS; assay type: cell-based; details: for IL-6 / IL-6, % of positive control: UtSMC pre-treated, then LPS; for IL-6: LPS positive control 121.7 pg/mL; for IL-6, % of positive control: relative to DMSO+LPS positive control
Description: In this Example, the effect of progesterone metabolites 16αOHP and 6β-OHP on inflammation in primary uterine smooth muscle cells (UtSMC) was analyzed.
UtSMC were cultured in the presence of DMSO and one of the following: (1) progesterone; (2) […]; (3) 6β-OHP; and (4) 16αOHP. Lipopolysaccharide (LPS) was then added to the culture to stimulate an immune inflammatory reaction. Experiments were performed in triplicate.

[4] = test system: primary uterine smooth muscle cells (UtSMC); assay: IL-6 production in UtSMC stimulated with TNF-α; assay type: cell-based
From the text: FIGS. 5A & 5B are graphs depicting the effect of progesterone metabolites 16αOHP and 6β-OHP on inflammation in primary uterine smooth muscle cells (UtSMC).

[5] = test system: THP-1 monocyte cells; assay: Flow cytometry of monocyte-derived macrophage population (PMA differentiation); assay type: cell-based; details: THP-1 pre-treated 24 hours, then PMA
Description: FIGS. 6A-6C depict flow cytometry of a monocyte-derived macrophage population pre-treated with progesterone metabolites. THP-1 monocyte cells were pre-treated with progesterone metabolites 16αOHP and 6β-OHP for 24 hours, then stimulated to differentiate to macrophages by exposure to PMA.
THP-1 monocyte cells were pre-treated with progesterone metabolites 16αOHP and 6β-OHP for 24 hours, then stimulated to differentiate to macrophages by exposure to phorbol 12-myristate 13-acetate (PMA).

[6] = test system: THP-1 monocytes; assay: IL-6 production in THP-1 monocytes stimulated with LPS; assay type: cell-based; details: THP-1 monocytes pretreated, then LPS; versus positive control
Description: FIG. 9 is a graph depicting the effect of progesterone and progesterone metabolites (16αOHP and 6β-OHP) on inflammation in THP-1 monocytes stimulated with LPS.
In this Example, the effect of progesterone and progesterone metabolites (16αOHP and 6β-OHP) on inflammation in THP-1 monocytes stimulated with LPS was analyzed.

[7] = test system: monocyte-derived macrophage populations; assay: Macrophage cell surface marker expression of monocyte-derived macrophages; assay type: cell-based; details: relative to DMSO treated control
From the text: FIG. 7 is a graph depicting characterization of monocyte-derived macrophage populations after pre-treatment with progesterone and progesterone metabolites. Expression of macrophage cell surface markers is illustrated relative to DMSO treated control.
In this Example, monocyte-derived macrophage populations after pre-treatment with progesterone and progesterone metabolites were characterized.
Expression of macrophage cell surface markers is illustrated relative to DMSO treated control (see FIG. 7).

[8] = test system: NF-κB pathway; assay: NF-κB pathway activation in THP-1 monocytes stimulated with LPS (imaging flow cytometry); assay type: cell-based; details: THP-1 monocytes pre-treated, then LPS
Description: FIGS. 8A-8B depicts the summary of NF-κB pathway activation in THP-1 monocytes stimulated with LPS after pre-treatment with progesterone and progesterone metabolites. […] In this Example, the effect of progesterone metabolites on the LPS-induced inflammatory response in monocytes was analyzed. Particularly, NF-κB pathway activation in THP-1 monocytes stimulated with LPS after pre-treatment with progesterone and progesterone metabolites was analyzed.

[9] = read-out: Contractile Force IC50
[10] = read-out: Contractile Frequency IC50
[11] = read-out: Contractile Force EC50
[12] = read-out: Contractile Frequency EC50
[13] = Mus musculus, read-out: Contractile Force IC50
[14] = Mus musculus, read-out: Contractile Frequency IC50
[15] = Mus musculus, read-out: Contractile Force EC50
[16] = Mus musculus, read-out: Contractile Frequency EC50

Row | Compound | Spontaneous contractile force compared with the vehicle control (in words) [1] | Spontaneous uterine contraction frequency compared to vehicle control (in words) [1] | Contractile Frequency/10 min (% of baseline), Drug [1] | Contractile Force (% of baseline), Drug [1] | pIC50 [1, 9] | pIC50 [1, 10] | Oxytocin-induced contractile force compared to vehicle control (in words) [2] | Oxytocin-induced contraction frequency compared to control (in words) [2] | pEC50 [2, 11] | pEC50 [2, 12] | Contractile Force (% of baseline), Drug [2] | Contractile Frequency/10 min (% of baseline), Drug [2] | IL-6 [3] [pg/mL] | IL-6, % of positive control [3] [%] | pIC50 [1, 13] | pIC50 [1, 14] | pEC50 [2, 15] | pEC50 [2, 16] | also measured
1 | CC(=O)[C@H]1CC[C@H]2[C@@H]3CCC4=CC(=O)[C@H](O)C[C@]4(C)[C@H]3CC[C@]12C [2α-OHP, 4-pregnen-2α-ol-3,20-dione] | No significant difference | not significantly decreased | 53.7% of baseline | 37.9% of baseline | 9.49 | 9.26 | no differences | not | 7.17 | 6.19 | 329.5% of baseline | 168.9% of baseline |  |  |  |  |  |  | 
2 | CC(=O)[C@H]1[C@H](O)C[C@H]2[C@@H]3CCC4=CC(=O)CC[C@]4(C)[C@H]3CC[C@@]21C [16α-OHP, 4-pregnen-16α-ol-3,20-dione] | No significant difference | not significantly decreased | 57% of baseline | 37.2% of baseline | 9.11 | 9.13 | no differences | decreased significantly | 6.85 | 8.07 | 301.6% of baseline | 216.9% of baseline | 98.7 | 83 |  |  |  |  | Effect on oxytocin-induced uterine contractility (in words) [2]: decreased; Contractile Frequency/10 min (% of baseline), Drug ([2]; listed as 16αOHP): 217 % of baseline; IL-6 production (in words) ([3]; UtSMC stimulated with LPS): reduced IL-6 production; IL-6 production (in words) [4]: decreased IL-6 production; Macrophage population/phenotype compared to DMSO treated control (in words) [5]: decrease in the macrophage population/phenotype; Inflammatory response (IL-6 production) (in words) [6]: significantly decreased IL-6 production
3 | CCCCCC(=O)O[C@]1(C(C)=O)CC[C@H]2[C@@H]3CCC4=CC(=O)CC[C@]4(C)[C@H]3CC[C@@]21C [17-OHPC, 4-pregnen-17-ol-3,20-dione caproate, reference compound] | No significant difference | not significantly decreased | 57.9% of baseline | 50.4% of baseline |  |  |  | decreased significantly |  |  | 218.4 % of baseline | 130 % of baseline and 130.2% of baseline |  |  | 9.11 | 9.51 | 8.07 | 8.49 | 
4 | C[C@]12CC[C@@H]3c4ccc(O)cc4CC[C@H]3[C@@H]1CC[C@@H]2O [E2, reference compound] |  |  |  |  |  |  |  |  |  |  |  |  | 126 | 103 |  |  |  |  | 
5 | CC(=O)[C@H]1CC[C@H]2[C@@H]3CCC4=CC(=O)CC[C@]4(C)[C@H]3CC[C@]12C [Progesterone] |  | not significantly decreased | 48% of baseline | 43.9% of baseline |  |  |  | decreased significantly |  |  | 266.8% of baseline | 141% of baseline | 100.3 | 83 | 9.51 | 8.18 | 8.01 | 7.95 | Contractile Force (% of baseline), Drug ([1]; listed as progesterone): 43.9 % of baseline; Contractile Force (% of baseline), Drug ([2]; listed as progesterone): 266.8 % of baseline; Contractile Frequency/10 min (% of baseline), Drug ([2]; listed as progesterone): 141 % of baseline; Expression of cell surface markers involved in immune response (CD14, TLR4, and HLA-DR) (in words) [7]: decreased expression; Median similarity score (NF-κB migration into the nucleus) (in words) [8]: did not affect the median similarity score

Reference: patent publication US10231979B2, “Modulation of inflammation using progesterone metabolites” (Indiana University Research and Technology Corporation, priority 2015, dated 2019)
